Measurements as given in patent EP0103895A2, “Novel hydroxylamine derivatives, production and use thereof” (MEIJI SEIKA KABUSHIKI KAISHA, priority 1982, dated 1984).
Values joined by “and” are separate entries in the source; they are usually repeats but may differ in a detail not shown here. Equal entries are not always repeated. Where two headings read alike, the source gives them in different places.

Key:
[1] = tested on: fowl roundworm (As. galli); assay: Anthelmintic test in chickens infected with fowl roundworm, single oral dose of 40 mg per Kg, worm bodies counted within 24 hours (Test Example E1); format: in vivo, Ascaridia galli; conditions: 40 mg per Kg oral in gelatin capsule; for inhibition in vivo at 40 mg/kg: Ascaridia galli, 24 h, chicken No.1, read-out: Anthelmintic effect after one day
Experimental: Chickens infected with fowl roundworm (As. galli) were employed in groups each consisting of five chickens. The compound provided for testing was orally administered in a quantity of 40 mg per Kg of body weight to each chicken in a gelatin capsule. The number of worm bodies discharged within 24 hours after administration of the medicine was counted. Then the chicken was killed, and the number of worm bodies remaining in the enteron was counted to determine the anthelmintic percentage, wherefrom the anthelmintic effect was judged.

[2] = tested on: fowl roundworm (As. galli); assay: Anthelmintic test in chickens infected with fowl roundworm, compound added to feed at 250 ppm and 1,000 ppm, E.P.G. and worm count on 5th day (Test Example E2); format: in vivo, Ascaridia galli; conditions: for E.P.G. after 5 days: worm egg number in 1 g of fecal matter; for anthelmintic effect / inhibition in vivo at 250 ppm / inhibition in vivo at 1000 ppm: 5th day; for inhibition in vivo at 250 ppm / inhibition in vivo at 1000 ppm: Ascaridia galli, feed or water, 120 h, read-out: Anthelmintic effect
Experimental: Chickens infected with fowl roundworm (As. galli) were employed in groups each of two chickens.
The compound provided for the test was dissolved in a small amount of ethyl alcohol and adsorbed on defatted rice bran and added to chicken feed at levels of 250 ppm and 1,000 ppm. As control, a feed containing no such compound was employed.
Fecal matter testing was conducted before initiation of the test and on the 5th day after initiation of the test. The reduction in worm egg count was examined by calculating the E.P.G. (worm egg number in 1 g of fecal matter). The number of discharged worm bodies and the number of worm bodies remaining in the enteron when the chicken was killed on 5th day were counted to determined the anthelmintic percentage, from which the anthelmintic effect was judged.

[3] = tested on: canine filaria; Dirofilaria immitis; assay: Test of anthelmintic effect against canine filaria in naturally infected dogs, subcutaneous injection, microfilaria in blood and adult filaria at autopsy (Test Examples A10, B10, C10, D10); format: in vivo; conditions: for inhibition in vivo at 20 mg/kg / inhibition in vivo at 30 mg/kg: Dirofilaria immitis, sc, 240 h
Experimental: Eight dogs infected with canine filaria; Diro- filaria immitis (naturally infected dogs) were employed in groups each of two dogs.
The compounds provided for tests were Compound Nos. Al, A3 and A12. 20 mg of each was administered by subcutaneous injection per Kg of body weight to each of the two dogs as a suspension in 1% "Tween 80" solution once per day for three days. As control, 3 ml of the 1% "Tween 80" solution was subcutaneously injected into two dogs once per day for three days.
Before administration and on the 10th day after administration, 20 µl of earlobe blood of each dog was sampled and examined to determine the change in microfilaria (mf) according to the concentrated smear color method, and judgement on the effect on microfilaria (mf) was made. Judgement relating to adult filaria was made on the 10th day after the last administration by killing the dogs and carrying out autopsis.
30 mg of each compound was administered by subcutaneous injection per Kg of body weight to each of the two dogs as a suspension in 1% "Tween 80" solution once per day for three days. As control, 3 ml of the 1% "Tween 80" solution was subcutaneously injected into two dogs once per day for three days.
30 mg of each compound was administered by subcutaneous injection per Kg of body weight to each of two dogs as a suspension in 1% "Tween 80" solution once per day for three days. As control, 3 ml of the 1% "Tween 80" solution was subcutaneously injected to two dogs once per day for three days.
20 mg of each compound was administered by subcutaneous injection per kg of body weight once per day for three days to each of two dogs. These compounds were administered as a suspension in 1% "Tween 80" in the case of Compound No.Dl3 and as solutions dissolved in distilled water for injection in the case of Compounds Nos. D10 and D16, respectively. As control, 3 ml of the 1% "Tween 80" solution was subcutaneously injected into two dogs once per day for three days.

[4] = tested on: fowl roundworm (Ascaridia galli); assay: Anthelmintic test in chickens artificially infected with fowl roundworm, single oral dose in gelatin capsule, worm bodies counted within 48 hours (Test Examples A1, B1, C1, D1); format: in vivo; conditions: Ascaridia galli, po, 48 h, read-out: Anthelmintic effect after 48 hours
Experimental: Chickens infected artificially with fowl roundworm (Ascaridia galli) were employed in groups each consisting of three chickens. Fecal matter testing was conducted before administration of medicine to confirm infection with the worm. The quantity of the compound provided for testing was 10 mg and 20 mg per Kg of body weight, which was orally administered each in a gelatin capsule to the chicken. The number of worm bodies discharged within 48 hours after administration of medicine was counted, the chicken was killed after 48 hours and the number of worm bodies remaining in the enteron was counted to determine the anthelmintic percentage, wherefrom the antihelmintic effect was judged.
The same as that in Test Example Al.
The same as that in Test Example Al except that the compound provided for testing was in quantities of 30 mg and 50 mg per Kg of body weight, which were orally administered to the chickens in gelatin capsules.
The same as that in Test Example Al, except that the compounds provided for testing were used in quantities of 15 mg and 30 mg per Kg of body weight, which were orally administered each in a gelatin capsule to the chicken.

[5] = tested on: fowl roundworm (As. galli); assay: Anthelmintic test in chickens artificially infected with fowl roundworm, compound added to feed, E.P.G. and worm count up to 21st day (Test Examples A2, B2, C2, D2); format: in vivo, Ascaridia galli; conditions: chicken
Experimental: Chickens artificially infected with fowl roundworm (As. galli) were employed in groups each of two chickens.
Fecal matter testing was conducted before initiation of the test and on the 7th, 14th and 21st day after initiation of the test. Reduction in worm egg number was examined by calculating E.P.G. (worm eggs per 1 g of fecal matter), and the number of discharged worm bodies and the number of worm bodies remaining in the enteron when the chicken was killed on 21st day were counted to determine the anthelmintic percentage, from which the anthelmintic effect was judged.

[6] = 1000 ppm in feed, chicken No. 1
[7] = 1000 ppm in feed, chicken No. 2
[8] = chicken, 30 mg/Kg oral in gelatin capsule, chickens No.1-3
[9] = dogs, administration of 30 mg/Kg repeated three times, given as about 50% or more, read-out: anthelmintic effect against adult filaria
[10] = dog, 30 mg/Kg x 3, subcutaneous injection, suspension in 1% Tween 80
[11] = dog, 30 mg/Kg x 3, subcutaneous injection, 30 mg/kg
[12] = dogs, administration of 30 mg/Kg repeated three times

Compound | inhibition in vivo at 40 mg/kg [1] [%] | Anthelmintic effect after one day ([1]; chicken No.2) | Anthelmintic effect after one day ([1]; chicken No.3) | Anthelmintic effect after one day ([1]; chicken No.4) | Anthelmintic effect after one day ([1]; chicken No.5) | E.P.G. after 5 days ([2]; 250 ppm in feed, chicken No. 1) | anthelmintic effect ([2]; 250 ppm in feed, chicken No. 2) | E.P.G. after 5 days ([2]; 250 ppm in feed, chicken No. 2) | E.P.G. after 5 days [2, 6] | anthelmintic effect [2, 7] | E.P.G. after 5 days [2, 7] | inhibition in vivo at 250 ppm ([2]; 250 ppm in feed, chicken No. 1) [%] | inhibition in vivo at 1000 ppm [2, 6] [%] | further results
C#CCON(CC#C)C(=O)c1ccccc1 [Compound E7, N,O-dipropargyl-N-benzoylhydroxylamine] | 100 | +++ (100%) | +++ (100%) | +++ (100%) | +++ (100%) | 0 | +++ (100%) | 0 | 0 | +++ (100%) | 0 | 100 | 100 | –
C#CCNOCC=C [Compound D13, N-propargyl-O-allylhydroxylamine] | – | – | – | – | – | – | – | – | – | – | – | – | – | inhibition in vivo at 20 mg/kg ([3]; dog, 20 mg/Kg x 3, subcutaneous injection, read-out: Effect on adult filaria: Percent of worms killed): 63%; inhibition in vivo at 20 mg/kg ([3]; dogs, administration of 20 mg/Kg repeated three times, given as about 50% or more, read-out: anthelmintic effect against adult filaria): ≥ 50%; Number of microfilaria/20µl On 10th day after the administration ([3]; dog, 20 mg/Kg x 3, subcutaneous injection): 0 /20µl; Effect on adult filaria: Number of worms killed/ Total parasite ([3]; dog, 20 mg/Kg x 3, subcutaneous injection, 20 mg/kg): 21/33 and 20/30; Number of microfilaria/20µl Before administration ([3]; dog, before 20 mg/Kg x 3 subcutaneous injection (baseline)): 33 /20µl and 26 /20µl; anthelmintic effect against microfilaria (mf) ([3]; dogs, administration of 20 mg/Kg repeated three times): marked anthelmintic effect; inhibition in vivo at 15 mg/kg ([4]; chicken, 15 mg/Kg oral in gelatin capsule, chickens No.1-3): 80 to 90%; inhibition in vivo at 30 mg/kg [4, 8]: 100%
C=CCN(OCC)C(=O)CC [Compound B9, N-allyl-N-propionyl-O-ethylhydroxylamine] | – | – | – | – | – | – | – | – | – | – | – | – | – | inhibition in vivo at 30 mg/kg [3, 9]: ≥ 50%; Number of microfilaria/20 µl on 10th day after the last administration [3, 10]: 0 /20 µl; Effect on adult filaria: Number of worms killed/ Total parasite [3, 11]: 5/7 and 4/8; anthelmintic effect against microfilaria (mf) [3, 12]: marked anthelmintic effect; inhibition in vivo at 30 mg/kg ([4]; chickens, 30 mg/Kg orally in gelatin capsule, one value per chicken (No.1-3)): 100%; inhibition in vivo at 50 mg/kg ([4]; chickens, 50 mg/Kg orally in gelatin capsule, one value per chicken (No.1-3)): 100%
C#CCON(CC#C)C(=O)CCCCCCCCCCC [Compound E10, N,O-dipropargyl-N-lauroylhydroxylamine] | 100 | +++ (100%) | +++ (100%) | +++ (100%) | +++ (100%) | 0 | +++ (100%) | 0 | 0 | +++ (100%) | 0 | 100 | 100 | –
C#CCON(C=O)CC#C [Compound E9, N,O-dipro- pargyl-N-formylhydroxylamine] | 100 | +++ (100%) | +++ (100%) | +++ (100%) | +++ (100%) | 0 | +++ (100%) | 0 | 0 | +++ (100%) | 0 | 100 | 100 | –
C#CCON(CC#C)C(=O)CCCCC [Compound E5, N,O-dipropargyl-N-caproylhydroxylamine] | 100 | +++ (100%) | +++ (100%) | +++ (100%) | +++ (100%) | 0 | +++ (100%) | 0 | 0 | +++ (100%) | 0 | 100 | 100 | –
C=CCON(CC=CC)C(C)=O [Compound C9] | – | – | – | – | – | – | – | – | – | – | – | – | – | inhibition in vivo at 25 ppm ([5]; Ascaridia galli, feed or water, 504 h, 25 ppm in feed, read-out: Anthelmintic effect): 100%; inhibition in vivo at 50 ppm ([5]; Ascaridia galli, feed or water, 504 h, 50 ppm in feed, read-out: Anthelmintic effect): 100%; Change of E.P.G. 21st day ([5]; 25 ppm in feed): 0; Change of E.P.G. 21st day ([5]; 50 ppm in feed): 0; inhibition in vivo at 30 mg/kg ([3]; dog, 30 mg/Kg x 3, subcutaneous injection, read-out: Effect on adult filaria: Percent of worms killed): 70%; inhibition in vivo at 30 mg/kg [3, 9]: ≥ 50%; Number of microfilaria/20 µl On 10th day after the last administration [3, 10]: 0 /20 µl; Effect on adult filaria: Number of worms killed/ Total parasite [3, 11]: 14/20 and 19/27; anthelmintic effect against microfilaria (mf) [3, 12]: marked anthelmintic effect; inhibition in vivo at 30 mg/kg [4, 8]: 100%; inhibition in vivo at 50 mg/kg ([4]; chicken, 50 mg/Kg oral in gelatin capsule, chickens No.1-3): 100%
